Measurements as given in publication PMC10599993, “The PTPN2/PTPN1 inhibitor ABBV-CLS-484 unleashes potent anti-tumour immunity” (Nature, 2023).

What was measured:
Experiment in all cases: biochemical
Parameters in all cases: Kinase selectivity panel, IC50 of AC484 (Supplementary Table 1)
SIK1 = SIK1 (Homo sapiens, UniProt P57059)
Protocol: (§1) Wide-range phosphatase, kinase and preclinical safety pharmacology off-target activity screens were conducted at Eurofins (Extended Data Table 5 and Supplementary Tables 1 and 2). A small phosphatase panel was developed at AbbVie to assess IC50 values on select phosphatases. The following enzymes used in the phosphatase selectivity panel were purchased from Eurofins: PTPN1 (PTP1B; 14–621), PTPN2 (TC-PTP; 14–646), PTPN9 (14–592), SHP1 (14–591) and SHP2 (14–622). The catalytic activity of the phosphatase was monitored using the small-molecule substrate DiFMUP (ThermoFisher) in a fluorescence assay format. In brief, the phosphatase reactions were performed at room temperature in the following assay buffer: 50 mM HEPES, pH 7.2, 100 mM NaCl, 1 mM EDTA, 0.005% Tween-20 and 5 mM TCEP. Each phosphatase was incubated with increasing concentrations of AC484 for 5 min, after which the substrate DiFMUP was added and incubated at 25 °C for 30 min. The final concentration of the enzyme and substrate was maintained at 0.5 nM and 5 μM, respectively, in all the assays. The reaction was then quenched by the addition of a 100 μM solution of bpV(Phen) (Enzo Life Sciences). The fluorescence signal was monitored using an Envision microplate reader (Perkin-Elmer) using excitation and emission wavelengths of 340 nm and 450 nm, respectively. The dose–response curves for the inhibitors were analysed using normalized IC50 regression curve fitting with control-based normalization. Supplementary file 41586_2023_6575_MOESM3_ESM.xlsx: Supplementary Table 1 AC484 kinase selectivity screen.

EGFR = EGFR (Homo sapiens, UniProt P00533)
EGFR, sequence (P00533 whole entry): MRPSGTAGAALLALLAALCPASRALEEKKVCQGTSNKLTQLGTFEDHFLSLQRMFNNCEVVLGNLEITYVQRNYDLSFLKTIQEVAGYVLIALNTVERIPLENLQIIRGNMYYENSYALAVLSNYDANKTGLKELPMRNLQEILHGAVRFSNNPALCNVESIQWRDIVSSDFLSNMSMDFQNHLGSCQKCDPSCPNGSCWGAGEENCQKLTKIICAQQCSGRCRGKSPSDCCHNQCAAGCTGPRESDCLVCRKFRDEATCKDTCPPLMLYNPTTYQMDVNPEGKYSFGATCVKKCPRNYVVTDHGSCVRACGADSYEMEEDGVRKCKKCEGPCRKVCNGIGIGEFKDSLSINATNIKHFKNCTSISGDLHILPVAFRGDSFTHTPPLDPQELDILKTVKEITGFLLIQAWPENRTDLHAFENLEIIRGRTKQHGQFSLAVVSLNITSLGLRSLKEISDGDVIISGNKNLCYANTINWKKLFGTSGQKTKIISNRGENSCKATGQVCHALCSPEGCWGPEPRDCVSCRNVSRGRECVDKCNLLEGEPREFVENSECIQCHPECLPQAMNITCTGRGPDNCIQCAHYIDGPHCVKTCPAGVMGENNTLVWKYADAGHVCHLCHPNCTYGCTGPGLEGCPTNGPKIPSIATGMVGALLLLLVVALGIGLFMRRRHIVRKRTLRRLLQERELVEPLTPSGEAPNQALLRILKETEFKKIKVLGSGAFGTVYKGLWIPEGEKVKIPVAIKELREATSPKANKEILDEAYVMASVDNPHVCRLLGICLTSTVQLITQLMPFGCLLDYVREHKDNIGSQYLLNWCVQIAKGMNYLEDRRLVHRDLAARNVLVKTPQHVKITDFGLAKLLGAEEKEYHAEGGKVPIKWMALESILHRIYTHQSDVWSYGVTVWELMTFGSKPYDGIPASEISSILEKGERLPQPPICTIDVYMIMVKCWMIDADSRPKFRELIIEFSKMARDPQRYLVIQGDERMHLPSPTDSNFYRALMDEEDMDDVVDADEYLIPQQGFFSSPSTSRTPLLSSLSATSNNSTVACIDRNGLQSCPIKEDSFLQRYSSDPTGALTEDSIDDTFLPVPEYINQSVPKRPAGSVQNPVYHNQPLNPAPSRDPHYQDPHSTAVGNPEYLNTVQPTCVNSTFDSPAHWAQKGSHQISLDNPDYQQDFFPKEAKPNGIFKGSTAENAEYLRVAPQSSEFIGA
Protocol: as §1

Prkcn = target: T1, Prkcn (Homo sapiens, UniProt O94806)
T1 construct: gene PRKD3
T1 sequence (O94806 whole entry): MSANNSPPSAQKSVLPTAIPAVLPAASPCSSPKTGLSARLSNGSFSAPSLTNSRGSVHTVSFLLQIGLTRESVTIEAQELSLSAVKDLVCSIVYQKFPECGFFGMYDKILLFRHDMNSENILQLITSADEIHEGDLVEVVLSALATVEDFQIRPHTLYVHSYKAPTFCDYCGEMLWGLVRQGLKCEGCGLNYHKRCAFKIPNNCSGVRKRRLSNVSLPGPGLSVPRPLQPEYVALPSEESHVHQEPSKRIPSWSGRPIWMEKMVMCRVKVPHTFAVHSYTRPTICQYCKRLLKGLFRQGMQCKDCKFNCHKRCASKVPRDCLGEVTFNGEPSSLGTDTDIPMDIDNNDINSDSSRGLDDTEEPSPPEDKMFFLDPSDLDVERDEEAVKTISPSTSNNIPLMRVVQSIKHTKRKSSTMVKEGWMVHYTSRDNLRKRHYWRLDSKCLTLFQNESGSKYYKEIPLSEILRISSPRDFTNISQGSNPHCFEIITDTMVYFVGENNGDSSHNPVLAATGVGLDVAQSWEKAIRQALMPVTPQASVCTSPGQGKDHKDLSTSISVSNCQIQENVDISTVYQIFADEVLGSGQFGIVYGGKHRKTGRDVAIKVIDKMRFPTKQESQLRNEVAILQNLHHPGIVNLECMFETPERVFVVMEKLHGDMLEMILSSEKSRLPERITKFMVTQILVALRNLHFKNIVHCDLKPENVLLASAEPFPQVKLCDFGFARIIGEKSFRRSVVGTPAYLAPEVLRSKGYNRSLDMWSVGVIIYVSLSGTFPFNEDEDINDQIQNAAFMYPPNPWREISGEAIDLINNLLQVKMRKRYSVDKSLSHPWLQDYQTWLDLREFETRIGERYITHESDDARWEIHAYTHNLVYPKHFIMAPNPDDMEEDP
Protocol: as §1

PKA = target: T2, PKA (Homo sapiens, UniProt P17612)
T2 construct: gene PRKACA
Protocol: as §1

Wee1 = Wee1 (Homo sapiens, UniProt P30291)
Wee1, sequence (P30291 whole entry): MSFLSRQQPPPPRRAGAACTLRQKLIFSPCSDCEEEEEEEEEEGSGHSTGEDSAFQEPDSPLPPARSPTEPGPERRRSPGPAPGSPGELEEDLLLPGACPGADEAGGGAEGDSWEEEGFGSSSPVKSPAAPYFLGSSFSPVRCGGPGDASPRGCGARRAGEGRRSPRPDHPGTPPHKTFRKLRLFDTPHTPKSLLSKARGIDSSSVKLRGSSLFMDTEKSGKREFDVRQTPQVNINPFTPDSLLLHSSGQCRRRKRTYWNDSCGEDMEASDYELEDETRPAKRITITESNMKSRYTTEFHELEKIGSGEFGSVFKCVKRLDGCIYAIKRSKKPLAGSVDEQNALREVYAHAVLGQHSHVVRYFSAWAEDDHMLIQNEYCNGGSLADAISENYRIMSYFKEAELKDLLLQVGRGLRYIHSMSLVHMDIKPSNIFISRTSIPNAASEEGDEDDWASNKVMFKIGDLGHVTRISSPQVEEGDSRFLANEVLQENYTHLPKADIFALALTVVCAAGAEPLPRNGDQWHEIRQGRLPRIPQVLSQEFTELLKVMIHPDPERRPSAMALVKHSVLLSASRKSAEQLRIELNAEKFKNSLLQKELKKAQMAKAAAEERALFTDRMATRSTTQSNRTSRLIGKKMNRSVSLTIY
Protocol: as §1

Measured: IC50

SIK1, sequence (P57059 whole entry): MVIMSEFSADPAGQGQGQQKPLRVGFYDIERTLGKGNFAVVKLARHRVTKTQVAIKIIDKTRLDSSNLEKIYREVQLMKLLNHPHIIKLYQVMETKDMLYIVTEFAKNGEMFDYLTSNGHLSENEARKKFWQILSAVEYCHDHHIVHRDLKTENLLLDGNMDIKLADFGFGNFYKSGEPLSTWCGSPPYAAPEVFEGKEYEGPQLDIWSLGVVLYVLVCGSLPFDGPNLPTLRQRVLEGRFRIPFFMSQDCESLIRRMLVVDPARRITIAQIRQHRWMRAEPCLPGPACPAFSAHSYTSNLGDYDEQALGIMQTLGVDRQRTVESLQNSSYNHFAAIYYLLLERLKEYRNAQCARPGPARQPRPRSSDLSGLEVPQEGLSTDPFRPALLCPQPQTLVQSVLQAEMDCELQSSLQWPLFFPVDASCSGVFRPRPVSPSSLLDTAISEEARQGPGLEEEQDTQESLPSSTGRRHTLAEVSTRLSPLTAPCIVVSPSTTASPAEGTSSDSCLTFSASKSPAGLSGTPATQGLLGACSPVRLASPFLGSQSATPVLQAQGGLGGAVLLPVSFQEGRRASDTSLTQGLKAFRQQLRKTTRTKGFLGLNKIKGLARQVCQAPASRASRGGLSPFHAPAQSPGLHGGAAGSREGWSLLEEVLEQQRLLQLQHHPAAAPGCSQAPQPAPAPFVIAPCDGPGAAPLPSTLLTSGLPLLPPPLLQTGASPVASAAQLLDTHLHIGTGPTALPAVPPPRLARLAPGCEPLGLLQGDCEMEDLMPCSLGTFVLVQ

CC(C)CCN[C@@H]1CCc2cc(O)c(N3CC(=O)NS3(=O)=O)c(F)c2C1 [AC484, ABBV-CLS-484]
> 10 µM: all assays above
